In ChEMBL document CHEMBL1275577, “Study of the in vitro activities of rifaximin and comparator agents against 536 anaerobic intestinal bacteria from the perspective of potential utility in pathology involving bowel flora” (Antimicrob Agents Chemother, 2009):

Key:
[1] = test system: Lactobacillus jensenii; assay: Antimicrobial activity against Lactobacillus jensenii by Wadsworth agar dilution method in presence of beta-lactamase inhibitor Sulbactam; type: functional
[2] = test system: Clostridium disporicum; assay: Antimicrobial activity against Clostridium disporicum by Wadsworth agar dilution method in presence of beta-lactamase inhibitor Sulbactam; type: functional
[3] = test system: Clostridium butyricum; assay: Antimicrobial activity against Clostridium butyricum by Wadsworth agar dilution method in presence of beta-lactamase inhibitor Sulbactam; type: functional
[4] = test system: Anaerococcus prevotii; assay: Antimicrobial activity against Anaerococcus prevotii by Wadsworth agar dilution method in presence of beta-lactamase inhibitor Sulbactam; type: functional
[5] = test system: Parabacteroides goldsteinii; assay: Antimicrobial activity against Parabacteroides goldsteinii by Wadsworth agar dilution method in presence of beta-lactamase inhibitor Sulbactam; type: functional
[6] = test system: Finegoldia magna; assay: Antimicrobial activity against Finegoldia magna by Wadsworth agar dilution method in presence of beta-lactamase inhibitor Sulbactam; type: functional
[7] = test system: Schaalia meyeri; assay: Antimicrobial activity against Actinomyces meyeri by Wadsworth agar dilution method in presence of beta-lactamase inhibitor Sulbactam; type: functional
[8] = test system: Eubacterium callanderi; assay: Antimicrobial activity against Eubacterium callanderi by Wadsworth agar dilution method in presence of beta-lactamase inhibitor Sulbactam; type: functional
[9] = Antimicrobial activity against Bifidobacterium infantis by Wadsworth agar dilution method in presence of beta-lactamase inhibitor Sulbactam; type: functional, Bifidobacterium longum subsp. infantis; conditions: Bifidobacterium longum
[10] = test system: [Clostridium] innocuum; assay: Antimicrobial activity against Clostridium innocuum by Wadsworth agar dilution method in presence of beta-lactamase inhibitor Sulbactam; type: functional
[11] = test system: Limosilactobacillus fermentum; assay: Antimicrobial activity against Lactobacillus fermentum by Wadsworth agar dilution method in presence of beta-lactamase inhibitor Sulbactam; type: functional
[12] = test system: Pseudoramibacter alactolyticus; assay: Antimicrobial activity against Eubacterium alactolyticum by Wadsworth agar dilution method in presence of beta-lactamase inhibitor Sulbactam; type: functional
[13] = test system: Clostridium fallax; assay: Antimicrobial activity against Clostridium fallax by Wadsworth agar dilution method in presence of beta-lactamase inhibitor Sulbactam; type: functional
[14] = test system: Thomasclavelia ramosa; assay: Antimicrobial activity against Clostridium ramosum by Wadsworth agar dilution method in presence of beta-lactamase inhibitor Sulbactam; type: functional
[15] = test system: Fusobacterium sp.; assay: Antimicrobial activity against Fusobacterium sp. by Wadsworth agar dilution method in presence of beta-lactamase inhibitor Sulbactam; type: functional
[16] = test system: Desulfovibrio piger; assay: Antimicrobial activity against Desulfovibrio piger by Wadsworth agar dilution method in presence of beta-lactamase inhibitor Sulbactam; type: functional
[17] = test system: Clostridium perfringens; assay: Antimicrobial activity against Clostridium perfringens by Wadsworth agar dilution method in presence of beta-lactamase inhibitor Sulbactam; type: functional
[18] = test system: Prevotella intermedia; assay: Antimicrobial activity against Prevotella intermedia by Wadsworth agar dilution method in presence of beta-lactamase inhibitor Sulbactam; type: functional
[19] = test system: Clostridium tertium; assay: Antimicrobial activity against Clostridium tertium by Wadsworth agar dilution method in presence of beta-lactamase inhibitor Sulbactam; type: functional
[20] = test system: Atopobium minutum; assay: Antimicrobial activity against Atopobium minutum by Wadsworth agar dilution method in presence of beta-lactamase inhibitor Sulbactam; type: functional
[21] = test system: Porphyromonas asaccharolytica; assay: Antimicrobial activity against Porphyromonas asaccharolyticus by Wadsworth agar dilution method in presence of beta-lactamase inhibitor Sulbactam; type: functional
[22] = test system: Anaerococcus tetradius; assay: Antimicrobial activity against Anaerococcus tetradius by Wadsworth agar dilution method in presence of beta-lactamase inhibitor Sulbactam; type: functional
[23] = test system: Clostridium hathewayi; assay: Antimicrobial activity against Clostridium hathewayi by Wadsworth agar dilution method in presence of beta-lactamase inhibitor Sulbactam; type: functional; conditions: Hungatella hathewayi
[24] = test system: Cutibacterium acnes; assay: Antimicrobial activity against Propionibacterium acnes by Wadsworth agar dilution method in presence of beta-lactamase inhibitor Sulbactam; type: functional
[25] = Antimicrobial activity against Bifidobacterium pseudocatenulatum by Wadsworth agar dilution method in presence of beta-lactamase inhibitor Sulbactam; type: functional
[26] = test system: Limosilactobacillus reuteri; assay: Antimicrobial activity against Lactobacillus reuteri by Wadsworth agar dilution method in presence of beta-lactamase inhibitor Sulbactam; type: functional
[27] = test system: Lactobacillus sp.; assay: Antimicrobial activity against Lactobacillus sp. by Wadsworth agar dilution method in presence of beta-lactamase inhibitor Sulbactam; type: functional
[28] = test system: Bacteroides nordii; assay: Antimicrobial activity against Bacteroides nordii by Wadsworth agar dilution method in presence of beta-lactamase inhibitor Sulbactam; type: functional
[29] = test system: Collinsella aerofaciens; assay: Antimicrobial activity against Colinsella aerofaciens by Wadsworth agar dilution method in presence of beta-lactamase inhibitor Sulbactam; type: functional
[30] = test system: Blautia producta; assay: Antimicrobial activity against Ruminococcus productus by Wadsworth agar dilution method in presence of beta-lactamase inhibitor Sulbactam; type: functional
[31] = test system: Fusobacterium mortiferum; assay: Antimicrobial activity against Clostridium rectum by Wadsworth agar dilution method in presence of beta-lactamase inhibitor Sulbactam; type: functional
[32] = test system: Coprobacillus cateniformis; assay: Antimicrobial activity against Coprobacillus cateniformis by Wadsworth agar dilution method in presence of beta-lactamase inhibitor Sulbactam; type: functional
[33] = test system: Eubacterium saburreum; assay: Antimicrobial activity against Eubacterium saburreum by Wadsworth agar dilution method in presence of beta-lactamase inhibitor Sulbactam; type: functional; conditions: Lachnoanaerobaculum saburreum
[34] = test system: Desulfovibrio fairfieldensis; assay: Antimicrobial activity against Desulfovibrio fairfieldensis by Wadsworth agar dilution method in presence of beta-lactamase inhibitor Sulbactam; type: functional

SMILES: CC1(C)S[C@@H]2[C@H](NC(=O)[C@H](N)c3ccccc3)C(=O)N2[C@H]1C(=O)O [AMPICILLIN]
- MIC [1]: 0.25 µg/mL
- MIC50 [1]: 0.25 µg/mL
- MIC90 [1]: 2 µg/mL
- MIC [2]: 0.25 µg/mL
- MIC50 [2]: 0.25 µg/mL
- MIC90 [2]: 1 µg/mL
- MIC [3]: 0.25 µg/mL
- MIC50 [3]: 0.25 µg/mL
- MIC90 [3]: 1 µg/mL
- MIC [4]: 0.25 µg/mL
- MIC50 [4]: 0.25 µg/mL
- MIC90 [4]: 2 µg/mL
- MIC50 [5]: 16 µg/mL
- MIC90 [5]: 32 µg/mL
- MIC [6]: 0.25 µg/mL
- MIC50 [6]: 0.25 µg/mL
- MIC90 [6]: 2 µg/mL
- MIC [7]: 0.25 µg/mL
- MIC50 [7]: 0.25 µg/mL
- MIC90 [7]: 2 µg/mL
- MIC [8]: 0.25 µg/mL
- MIC50 [8]: 0.25 µg/mL
- MIC90 [8]: 2 µg/mL
- MIC [9]: 0.25 µg/mL
- MIC50 [9]: 0.25 µg/mL
- MIC90 [9]: 2 µg/mL
- MIC [10]: 0.25 µg/mL
- MIC50 [10]: 0.25 µg/mL
- MIC90 [10]: 0.5 µg/mL
- MIC [11]: 0.25 µg/mL
- MIC50 [11]: 0.25 µg/mL
- MIC90 [11]: 2 µg/mL
- MIC [12]: 0.25 µg/mL
- MIC50 [12]: 0.25 µg/mL
- MIC90 [12]: 2 µg/mL
- MIC [13]: 0.25 µg/mL
- MIC50 [13]: 0.25 µg/mL
- MIC90 [13]: 1 µg/mL
- MIC [14]: 0.25 µg/mL
- MIC50 [14]: 0.25 µg/mL
- MIC90 [14]: 1 µg/mL
- MIC50 [15]: 1 µg/mL
- MIC90 [15]: 4 µg/mL
- MIC50 [16]: 4 µg/mL
- MIC90 [16]: 32 µg/mL
- MIC50 [17]: 0.25 µg/mL
- MIC90 [17]: 0.25 µg/mL
- MIC50 [18]: 0.5 µg/mL
- MIC90 [18]: 4 µg/mL
- MIC [19]: 0.25 µg/mL
- MIC50 [19]: 0.25 µg/mL
- MIC90 [19]: 1 µg/mL
- MIC [20]: 0.25 µg/mL
- MIC50 [20]: 0.25 µg/mL
- MIC90 [20]: 2 µg/mL
- MIC [21]: 0.25 µg/mL
- MIC50 [21]: 0.25 µg/mL
- MIC90 [21]: 0.5 µg/mL
- MIC [22]: 0.25 µg/mL
- MIC50 [22]: 0.25 µg/mL
- MIC90 [22]: 2 µg/mL
- MIC50 [23]: 2 µg/mL
- MIC90 [23]: 2 µg/mL
- MIC [24]: 0.25 µg/mL
- MIC50 [24]: 0.25 µg/mL
- MIC90 [24]: 2 µg/mL
- MIC [25]: 0.25 µg/mL
- MIC50 [25]: 0.25 µg/mL
- MIC90 [25]: 2 µg/mL
- MIC [26]: 0.25 µg/mL
- MIC50 [26]: 0.25 µg/mL
- MIC90 [26]: 2 µg/mL
- MIC [27]: 0.25 µg/mL
- MIC50 [27]: 0.25 µg/mL
- MIC90 [27]: 2 µg/mL
- MIC50 [28]: 2 µg/mL
- MIC90 [28]: 16 µg/mL
- MIC [29]: 0.25 µg/mL
- MIC50 [29]: 0.25 µg/mL
- MIC90 [29]: 2 µg/mL
- MIC [30]: 0.25 µg/mL
- MIC50 [30]: 0.25 µg/mL
- MIC90 [30]: 2 µg/mL
- MIC [31]: 0.25 µg/mL
- MIC50 [31]: 0.25 µg/mL
- MIC90 [31]: 1 µg/mL
- MIC [32]: 0.25 µg/mL
- MIC50 [32]: 0.25 µg/mL
- MIC90 [32]: 2 µg/mL
- MIC [33]: 0.25 µg/mL
- MIC50 [33]: 0.25 µg/mL
- MIC90 [33]: 2 µg/mL
- MIC50 [34]: 4 µg/mL
- MIC90 [34]: 32 µg/mL
